According to ChEMBL document CHEMBL1150728, “Antimalarial agents, 4. Synthesis of a brusatol analog and biological activity of brusatol-related compounds” (1987):
Converted amounts (≈) assume the structure as drawn.

System: Plasmodium falciparum
Assay: Antimicrobial activity against chloroquine-resistant Plasmodium falciparum Smith
Type: functional
Settings: read-out: ED50 (the source's name)

SMILES | EC50 [µg/mL]
CCCCCC/C=C/C(=O)O[C@H]1C(=O)O[C@@H]2C[C@H]3C(C)=C(O)C(=O)C[C@]3(C)[C@H]3[C@@H](O)[C@H](O)[C@@]4(C(=O)OC)OC[C@]32[C@@H]14 | 0.0617 (≈ 0.107 µM)
COC(=O)[C@@]12OC[C@]34[C@H]([C@@H](O)[C@@H]1O)[C@@]1(C)CC(=O)C(O)=C(C)[C@@H]1C[C@H]3OC(=O)[C@H](O)[C@@H]24 [BRUCEOLIDE] | 0.0752 (≈ 0.172 µM)
COC(=O)[C@@]12OC[C@]34[C@H]([C@@H](O)[C@@H]1O)[C@@]1(C)C=C(O[C@@H]5O[C@H](CO)[C@@H](O)[C@H](O)[C@H]5O)C(=O)[C@@H](C)[C@@H]1C[C@H]3OC(=O)[C@H](OC(=O)C=C(C)C)[C@@H]24 [BRUCEOSIDE A] | 0.581 (≈ 0.851 µM)
COC(=O)[C@]12OC[C@]34[C@H]([C@@H](O)[C@@H]1O)[C@@]1(C)CC(=O)C(O)=C(C)[C@@H]1C[C@H]3OC(=O)[C@H](OC(=O)C=C(C)C)[C@@H]24 [BRUSATOL] | 0.00758 (≈ 0.0146 µM)
